According to patent publication US8680139B2 (Progenra, priority 2009, dated 2014):

The compounds below were run against T1, USP7 (Homo sapiens, UniProt Q93009) (assay: USP7, Ub-PLA2 assay). Conditions: USP7, Ub-PLA2 assay.
T1 construct: full length human USP7 protein; made in house
Assay type: biochemical
Protocol: The purpose of this assay is to measure the inhibition of USP7 by various compounds of the invention synthesized according to the above-described methods. […] The vehicle control was 100% (v/v) DMSO. 1.6 μL aliquots of the diluted test compound and controls were dispensed into individual wells in a black walled 96 well plate. […] The data were normalized within a plate relative to the control wells using the equation % inhibition=(100−(((RFUcompound−RFUmean NEM) / (RFUmean DMSO−RFUmean NEM))×100)).

T1 sequence (Q93009 whole entry): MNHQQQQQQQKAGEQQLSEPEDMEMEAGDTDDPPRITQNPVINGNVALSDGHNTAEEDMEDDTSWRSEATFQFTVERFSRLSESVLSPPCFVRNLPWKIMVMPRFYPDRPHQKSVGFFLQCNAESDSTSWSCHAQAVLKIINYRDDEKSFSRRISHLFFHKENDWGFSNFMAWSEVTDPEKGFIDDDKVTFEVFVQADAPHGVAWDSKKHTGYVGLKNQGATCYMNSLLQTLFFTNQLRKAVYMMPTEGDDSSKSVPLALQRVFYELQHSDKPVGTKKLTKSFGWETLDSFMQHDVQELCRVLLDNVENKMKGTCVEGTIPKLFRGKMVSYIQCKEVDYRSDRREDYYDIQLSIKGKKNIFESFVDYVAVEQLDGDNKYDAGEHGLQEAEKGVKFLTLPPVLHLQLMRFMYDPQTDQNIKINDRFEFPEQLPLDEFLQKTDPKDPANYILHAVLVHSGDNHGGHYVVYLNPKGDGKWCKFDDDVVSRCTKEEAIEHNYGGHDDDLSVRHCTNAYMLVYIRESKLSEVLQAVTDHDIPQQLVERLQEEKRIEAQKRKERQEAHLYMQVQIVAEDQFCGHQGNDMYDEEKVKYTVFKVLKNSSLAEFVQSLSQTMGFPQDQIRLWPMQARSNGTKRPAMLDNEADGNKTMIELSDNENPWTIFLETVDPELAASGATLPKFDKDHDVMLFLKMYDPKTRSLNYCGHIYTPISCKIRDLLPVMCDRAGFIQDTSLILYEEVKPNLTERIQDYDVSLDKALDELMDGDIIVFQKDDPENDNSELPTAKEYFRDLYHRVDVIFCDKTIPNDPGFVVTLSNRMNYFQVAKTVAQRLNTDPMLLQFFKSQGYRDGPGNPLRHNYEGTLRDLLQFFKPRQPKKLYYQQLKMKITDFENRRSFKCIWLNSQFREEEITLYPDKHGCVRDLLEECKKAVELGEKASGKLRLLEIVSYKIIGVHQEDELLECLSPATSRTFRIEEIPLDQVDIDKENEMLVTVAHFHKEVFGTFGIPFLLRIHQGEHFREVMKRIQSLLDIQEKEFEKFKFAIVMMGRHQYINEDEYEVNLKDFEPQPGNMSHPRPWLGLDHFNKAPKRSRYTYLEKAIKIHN

USP7 inhibition, result in words	Structure (SMILES)
Particularly good results	N=C(N)Nc1ccc(NC(=O)c2cc([N+](=O)[O-])c(Sc3c(Cl)cncc3Cl)s2)cc1 [Example 236, 5-((3,5-dichloropyridin-4-yl)thio)-N-(4-guanidinophenyl)-4-nitrothiophene-2-carboxamide]

Same assay, conditions: Ub-PLA2 / NBD C6-HPC fluorescence, 30 minute preincubation; read-out: EC50 for inhibition of USP7

EC50	Structure (SMILES)
≤ 1000 nM	CSc1cccc(CN(C)C(=O)c2cc([N+](=O)[O-])c(Sc3c(Cl)cncc3Cl)s2)c1 [Example 127, 5-((3,5-dichloropyridin-4-yl)thio)-N-methyl-N-(3-(methylthio)benzyl)-4-nitrothiophene-2-carboxamide]
≤ 1000 nM	O=C(NCCc1ccccn1)c1cc([N+](=O)[O-])c(Sc2c(Cl)cncc2Cl)s1 [Example 109, 5-((3,5-dichloropyridin-4-yl)thio)-4-nitro-N-(2-(pyridin-2-yl)ethyl)thiophene-2-carboxamide]
≤ 1000 nM	COc1cccc(CNC(=O)c2cc([N+](=O)[O-])c(Sc3c(Cl)cncc3Cl)s2)c1OC [Example 97, 5-((3,5-dichloropyridin-4-yl)thio)-N-(2,3-dimethoxybenzyl)-4-nitrothiophene-2-carboxamide]
> 10000 nM	CNC(C)c1cc([N+](=O)[O-])c(Sc2ccc(Cl)cc2Cl)s1 (stereo not drawn) [Example 28, 1-[5-(2,4-dichlorophenyl)sulfanyl-4-nitro-2-thienyl]-N-methyl-ethanamine]
≤ 1000 nM	O=C(NCCCN1CCCC1)c1cc([N+](=O)[O-])c(Sc2c(Cl)cncc2Cl)s1 [Example 191, 5-((3,5-dichloropyridin-4-yl)thio)-4-nitro-N-(3-(pyrrolidin-1-yl)propyl)thiophene-2-carboxamide]
≤ 1000 nM	COCCCNC(=O)c1cc([N+](=O)[O-])c(Sc2c(Cl)cncc2Cl)s1 [Example 119, 5-((3,5-dichloropyridin-4-yl)thio)-N-(3-methoxypropyl)-4-nitrothiophene-2-carboxamide]
≤ 1000 nM	COc1cccc(NC(=O)c2cc([N+](=O)[O-])c(Sc3c(Cl)cncc3Cl)s2)c1 [Example 156, 5-((3,5-dichloropyridin-4-yl)thio)-N-(3-methoxyphenyl)-4-nitrothiophene-2-carboxamide]
> 10000 nM	CC(c1cc([N+](=O)[O-])c(Sc2ccc(Cl)cc2Cl)s1)N(C)C (stereo not drawn) [Example 29, 1-[5-(2,4-dichlorophenyl)sulfanyl-4-nitro-2-thienyl]-N,N-dimethyl-ethanamine]
1000 to 10000 nM	O=Cc1cc([N+](=O)[O-])c(Sc2ccc(Cl)cc2Cl)s1 [Example 32, 5-(2,4-dichlorophenylsulfanyl)-4-nitrothiophene-2-carbaldehyde]
> 10000 nM	CC(N)c1cc([N+](=O)[O-])c(Sc2ccc(Cl)cc2Cl)s1 (stereo not drawn) [Example 27, 1-[5-(2,4-dichlorophenyl)sulfanyl-4-nitro-2-thienyl]ethanamine]
> 10000 nM	COC(=O)c1cc([N+](=O)[O-])c(Sc2nc3nc(C)cc(C)n3n2)s1 [Example 266, Methyl 5-((5,7-dimethyl-[1,2,4]triazolo[1,5-a]pyrimidin-2-yl)thio)-4-nitrothiophene-2-carboxylate]
≤ 1000 nM	O=C(NCCc1ccc(Br)cc1)c1cc([N+](=O)[O-])c(Sc2c(Cl)cncc2Cl)s1 [Example 105, N-(4-bromophenethyl)-5-((3,5-dichloropyridin-4-yl)thio)-4-nitrothiophene-2-carboxamide]
> 10000 nM	CC(=O)c1cc([N+](=O)[O-])c(Sc2cccc3ccccc23)s1 [Example 5, 1-[5-(Naphth-1-ylsulfanyl)-4-nitro-2-thienyl]ethanone]
≤ 1000 nM	O=C(Nc1ccccc1)c1cc([N+](=O)[O-])c(Sc2c(Cl)cncc2Cl)s1 [Example 116, 5-((3,5-dichloropyridin-4-yl)thio)-4-nitro-N-phenylthiophene-2-carboxamide]
1000 to 10000 nM	Cc1nc(NC(=O)c2cc([N+](=O)[O-])c(Sc3c(Cl)cncc3Cl)s2)sc1C [Example 88, 5-((3,5-dichloropyridin-4-yl)thio)-N-(4,5-dimethylthiazol-2-yl)-4-nitrothiophene-2-carboxamide]
1000 to 10000 nM	CSCCNC(=O)c1cc([N+](=O)[O-])c(Sc2c(Cl)cncc2Cl)s1 [Example 50, 5-((3,5-dichloropyridin-4-yl)thio)-N-(2-(methylthio)ethyl)-4-nitrothiophene-2-carboxamide]
1000 to 10000 nM	COC(=O)c1cc([N+](=O)[O-])c(Sc2nc3cc(Cl)c(F)cc3[nH]2)s1 [Example 265, Methyl 5-((5-chloro-6-fluoro-1H-benzo[d]imidazol-2-yl)thio)-4-nitrothiophene-2-carboxylate]
> 10000 nM	CC(=O)c1cc([N+](=O)[O-])c(Sc2nccs2)s1 [Example 14, 1-(4-nitro-5-thiazol-2-ylsulfanyl-2-thienyl)ethanone]
1000 to 10000 nM	COC(=O)c1cc([N+](=O)[O-])c(Oc2c(Cl)cncc2Cl)s1 [Example 258, Methyl 5-((3,5-dichloropyridin-4-yl)oxy)-4-nitrothiophene-2-carboxylate]

EC50	Structure (SMILES)
≤ 1000 nM	O=C(Nc1ccc(Br)cc1)c1cc([N+](=O)[O-])c(Sc2c(Cl)cncc2Cl)s1 [Example 152, N-(4-bromophenyl)-5-((3,5-dichloropyridin-4-yl)thio)-4-nitrothiophene-2-carboxamide]
1000 to 10000 nM	CC(C)NC(=O)c1cc([N+](=O)[O-])c(Sc2c(Cl)cncc2Cl)s1 [Example 44, 5-[(3,5-dichloro-4-pyridyl)sulfanyl]-N-isopropyl-4-nitro-thiophene-2-carboxamide]
≤ 1000 nM	O=C(NCCN1CCCCC1)c1cc([N+](=O)[O-])c(Sc2c(Cl)cncc2Cl)s1 [Example 161, 5-((3,5-dichloropyridin-4-yl)thio)-4-nitro-N-(2-(piperidin-1-yl)ethyl)thiophene-2-carboxamide]
≤ 1000 nM	COc1ccc(NC(=O)c2cc([N+](=O)[O-])c(Sc3c(Cl)cncc3Cl)s2)cc1OC [Example 170, 5-((3,5-dichloropyridin-4-yl)thio)-4-nitro-N-(3,4-dimethoxyphenyl)thiophene-2-carboxamide]
≤ 1000 nM	CC(=O)Nc1cccc(CNC(=O)c2cc([N+](=O)[O-])c(Sc3c(Cl)cncc3Cl)s2)c1 [Example 122, N-(3-acetamidobenzyl)-5-((3,5-dichloropyridin-4-yl)thio)-4-nitrothiophene-2-carboxamide]
≤ 1000 nM	CN(C)CCCOc1cccc(CNC(=O)c2cc([N+](=O)[O-])c(Sc3c(Cl)cncc3Cl)s2)c1 [Example 126, 5-[(3,5-dichloro-4-pyridyl)sulfanyl]-N-[[3-(3-dimethylaminopropoxy)phenyl]methyl]-4-nitro-thiophene-2-carboxamide]
≤ 1000 nM	O=C(NCc1cccc(OC(F)F)c1)c1cc([N+](=O)[O-])c(Sc2c(Cl)cncc2Cl)s1 [Example 145, 5-((3,5-dichloropyridin-4-yl)thio)-N-(3-(difluoromethoxy)benzyl)-4-nitrothiophene-2-carboxamide]
1000 to 10000 nM	CN(C)c1ccc(NC(=O)c2cc([N+](=O)[O-])c(Sc3c(Cl)cncc3Cl)s2)cc1 [Example 86, 5-((3,5-dichloropyridin-4-yl)thio)-N-(4-(dimethylamino)phenyl)-4-nitrothiophene-2-carboxamide]
≤ 1000 nM	O=C(Nc1ccc(F)cc1F)c1cc([N+](=O)[O-])c(Sc2c(Cl)cncc2Cl)s1 [Example 143, 5-((3,5-dichloropyridin-4-yl)thio)-N-(2,4-difluorophenyl)-4-nitrothiophene-2-carboxamide]
≤ 1000 nM	O=C(NCc1cccc(C(F)(F)F)c1)c1cc([N+](=O)[O-])c(Sc2c(Cl)cncc2Cl)s1 [Example 148, 5-((3,5-dichloropyridin-4-yl)thio)-4-nitro-N-(3-(trifluoromethyl)benzyl)thiophene-2-carboxamide]
≤ 1000 nM	O=C(NCCCc1ccccn1)c1cc([N+](=O)[O-])c(Sc2c(Cl)cncc2Cl)s1 [Example 115, 5-((3,5-dichloropyridin-4-yl)thio)-4-nitro-N-(3-(pyridin-2-yl)propyl)thiophene-2-carboxamide]
≤ 1000 nM	COc1ccc(Cl)cc1NC(=O)c1cc([N+](=O)[O-])c(Sc2c(Cl)cncc2Cl)s1 [Example 130, N-(5-chloro-2-methoxyphenyl)-5-((3,5-dichloropyridin-4-yl)thio)-4-nitrothiophene-2-carboxamide]
≤ 1000 nM	CCn1cnc(NC(=O)c2cc([N+](=O)[O-])c(Sc3c(Cl)cncc3Cl)s2)n1 [Example 186, 5-((3,5-dichloropyridin-4-yl)thio)-N-(1-ethyl-1H-1,2,4-triazol-3-yl)-4-nitrothiophene-2-carboxamide]
1000 to 10000 nM	CC(=O)c1cc([N+](=O)[O-])c(Sc2ccc(C(F)(F)F)cc2)s1 [Example 10, 1-{5-[4-(Trifluoromethyl)phenylsulfanyl]-4-nitro-2-thienyl}ethanone]
1000 to 10000 nM	CC(=O)c1cc([N+](=O)[O-])c(Sc2ccc(Br)cc2)s1 [Example 12, 1-[5-(4-Bromophenylsulfanyl)-4-nitro-2-thienyl]ethanone]
> 10000 nM	CC(=O)c1cc([N+](=O)[O-])c(Sc2ccccc2Cl)s1 [Example 1, 1-[5-(2-Chlorophenylsulfanyl)-4-nitro-2-thienyl]ethanone]
≤ 1000 nM	N=C(N)Nc1ccc(NC(=O)c2cc([N+](=O)[O-])c(Sc3c(Cl)cncc3Cl)s2)cc1 [Example 236, 5-((3,5-dichloropyridin-4-yl)thio)-N-(4-guanidinophenyl)-4-nitrothiophene-2-carboxamide]
1000 to 10000 nM	COCCNC(=O)c1cc([N+](=O)[O-])c(Sc2c(Cl)cncc2Cl)s1 [Example 53, 5-((3,5-dichloropyridin-4-yl)thio)-N-(2-methoxyethyl)-4-nitrothiophene-2-carboxamide]
1000 to 10000 nM	Cc1ccsc1CNC(=O)c1cc([N+](=O)[O-])c(Sc2c(Cl)cncc2Cl)s1 [Example 56, 5-((3,5-dichloropyridin-4-yl)thio)-N-((3-methylthiophen-2-yl)methyl)-4-nitrothiophene-2-carboxamide]
